Laboratory results from patent US20190185417A1, “NOVEL ANTIBIOTICS” (priority 2016, published 2019).

Columns and labels:
Type in all cases: cell-based
[1] = tested on: Haemophilus influenzae (ATCC 49247); experiment: MIC by broth microdilution; settings: Table 2, Example 2
Description: (§1) The antibacterial potency of the test article(s) was measured using the in vitro broth microdilution assay under assay conditions described by the Clinical and Laboratory Standards Institute. […] The test substance was dissolved in 100% DMSO (unless stated below), suspended completely by sonication or vortexing, diluted by 2-fold serial titrations in the same vehicle, for a total of 11 test concentrations. A 4 μL aliquot of each dilution was added to 196 μL of broth medium seeded with the organism suspension in wells of a 96 well plate (bacterial count: 2−8×10^5 colony forming units/mL final). The final volume was 200 μL in each well and the final DMSO concentration was 2 percent. Following incubation, the test plates were visually examined and wells were scored for growth or complete growth inhibition to define the minimum inhibitory concentration. Each test substance was evaluated in duplicate and the results below are the duplicate test values. Vehicle-control and an active reference agent were used as blank and positive controls, respectively.

Gram-negative bacteria = experiment: MIC by broth microdilution, overall statement in words; settings: Example 2, statement in words
Description: as §1, with “DMSO,” for “DMSO (unless stated below),”, “incubation for 1 day at 36° C.,” for “incubation,”, “were reported as” for “below are”, “respectively. Microorganisms tested were Acinetobacter baumannii (ATCC 17978), Enterococcus faecalis (ATCC 29212), Enterococcus faecium VanA (ATCC 700221), Escherichia coli (ATCC 25922), Escherichia coli efflux defective DEL-tolC (JW5503), Heamophilus influenzae (ATCC 49247), Klebsiella pneumoniae (ATCC 43816), Pseudomonas aeruginosa (ATCC 27853), Pseudomonas aeruginosa MDR (NTUH-974), Staphylococcus aureus (ATCC 29213), Staphylococcus aureus MRSA (ATCC 33591) and Streptococcous pneumoniae (ATCC 46919). H. influenzae was grown in Haemophilus Test Medium and S. pneumoniae was grown in cation adjusted Muller-Hinton Broth II with 5% lysed horse blood. All other microorganisms were grown in cation adjusted Muller-Hinton Broth II.” for “respectively.”
as §1

[2] = tested on: Pseudomonas aeruginosa (ATCC 27853); experiment: MIC by broth microdilution; settings: Table 2, Example 2
Description: as §1, with “DMSO,” for “DMSO (unless stated below),”, “incubation for 1 day at 36° C.,” for “incubation,”, “were reported as” for “below are”, “respectively. Microorganisms tested were Acinetobacter baumannii (ATCC 17978), Enterococcus faecalis (ATCC 29212), Enterococcus faecium VanA (ATCC 700221), Escherichia coli (ATCC 25922), Escherichia coli efflux defective DEL-tolC (JW5503), Heamophilus influenzae (ATCC 49247), Klebsiella pneumoniae (ATCC 43816), Pseudomonas aeruginosa (ATCC 27853), Pseudomonas aeruginosa MDR (NTUH-974), Staphylococcus aureus (ATCC 29213), Staphylococcus aureus MRSA (ATCC 33591) and Streptococcous pneumoniae (ATCC 46919). H. influenzae was grown in Haemophilus Test Medium and S. pneumoniae was grown in cation adjusted Muller-Hinton Broth II with 5% lysed horse blood. All other microorganisms were grown in cation adjusted Muller-Hinton Broth II.” for “respectively.”
as §1

[3] = tested on: Escherichia coli (ATCC 25922); experiment: MIC by broth microdilution; settings: Table 2, Example 2
Description: as §1, with “DMSO,” for “DMSO (unless stated below),”, “incubation for 1 day at 36° C.,” for “incubation,”, “were reported as” for “below are”, “respectively. Microorganisms tested were Acinetobacter baumannii (ATCC 17978), Enterococcus faecalis (ATCC 29212), Enterococcus faecium VanA (ATCC 700221), Escherichia coli (ATCC 25922), Escherichia coli efflux defective DEL-tolC (JW5503), Heamophilus influenzae (ATCC 49247), Klebsiella pneumoniae (ATCC 43816), Pseudomonas aeruginosa (ATCC 27853), Pseudomonas aeruginosa MDR (NTUH-974), Staphylococcus aureus (ATCC 29213), Staphylococcus aureus MRSA (ATCC 33591) and Streptococcous pneumoniae (ATCC 46919). H. influenzae was grown in Haemophilus Test Medium and S. pneumoniae was grown in cation adjusted Muller-Hinton Broth II with 5% lysed horse blood. All other microorganisms were grown in cation adjusted Muller-Hinton Broth II.” for “respectively.”
as §1

[4] = tested on: Klebsiella pneumoniae (ATCC 43816); experiment: MIC by broth microdilution; settings: Table 2, Example 2
Description: as §1, with “DMSO,” for “DMSO (unless stated below),”, “incubation for 1 day at 36° C.,” for “incubation,”, “were reported as” for “below are”, “respectively. Microorganisms tested were Acinetobacter baumannii (ATCC 17978), Enterococcus faecalis (ATCC 29212), Enterococcus faecium VanA (ATCC 700221), Escherichia coli (ATCC 25922), Escherichia coli efflux defective DEL-tolC (JW5503), Heamophilus influenzae (ATCC 49247), Klebsiella pneumoniae (ATCC 43816), Pseudomonas aeruginosa (ATCC 27853), Pseudomonas aeruginosa MDR (NTUH-974), Staphylococcus aureus (ATCC 29213), Staphylococcus aureus MRSA (ATCC 33591) and Streptococcous pneumoniae (ATCC 46919). H. influenzae was grown in Haemophilus Test Medium and S. pneumoniae was grown in cation adjusted Muller-Hinton Broth II with 5% lysed horse blood. All other microorganisms were grown in cation adjusted Muller-Hinton Broth II.” for “respectively.”
as §1

[5] = tested on: Acinetobacter baumannii (ATCC 17978); experiment: MIC by broth microdilution; settings: Table 2, Example 2
Description: as §1, with “DMSO,” for “DMSO (unless stated below),”, “incubation for 1 day at 36° C.,” for “incubation,”, “were reported as” for “below are”, “respectively. Microorganisms tested were Acinetobacter baumannii (ATCC 17978), Enterococcus faecalis (ATCC 29212), Enterococcus faecium VanA (ATCC 700221), Escherichia coli (ATCC 25922), Escherichia coli efflux defective DEL-tolC (JW5503), Heamophilus influenzae (ATCC 49247), Klebsiella pneumoniae (ATCC 43816), Pseudomonas aeruginosa (ATCC 27853), Pseudomonas aeruginosa MDR (NTUH-974), Staphylococcus aureus (ATCC 29213), Staphylococcus aureus MRSA (ATCC 33591) and Streptococcous pneumoniae (ATCC 46919). H. influenzae was grown in Haemophilus Test Medium and S. pneumoniae was grown in cation adjusted Muller-Hinton Broth II with 5% lysed horse blood. All other microorganisms were grown in cation adjusted Muller-Hinton Broth II.” for “respectively.”
as §1

[6] = tested on: Pseudomonas aeruginosa, MDR (NTUH-974); experiment: MIC by broth microdilution; settings: Table 2, Example 2
Description: as §1, with “DMSO,” for “DMSO (unless stated below),”, “incubation for 1 day at 36° C.,” for “incubation,”, “were reported as” for “below are”, “respectively. Microorganisms tested were Acinetobacter baumannii (ATCC 17978), Enterococcus faecalis (ATCC 29212), Enterococcus faecium VanA (ATCC 700221), Escherichia coli (ATCC 25922), Escherichia coli efflux defective DEL-tolC (JW5503), Heamophilus influenzae (ATCC 49247), Klebsiella pneumoniae (ATCC 43816), Pseudomonas aeruginosa (ATCC 27853), Pseudomonas aeruginosa MDR (NTUH-974), Staphylococcus aureus (ATCC 29213), Staphylococcus aureus MRSA (ATCC 33591) and Streptococcous pneumoniae (ATCC 46919). H. influenzae was grown in Haemophilus Test Medium and S. pneumoniae was grown in cation adjusted Muller-Hinton Broth II with 5% lysed horse blood. All other microorganisms were grown in cation adjusted Muller-Hinton Broth II.” for “respectively.”
as §1

[7] = tested on: Escherichia coli, efflux defective DEL-tolC (JW5503); experiment: MIC by broth microdilution; settings: Table 2, Example 2
Description: as §1, with “DMSO,” for “DMSO (unless stated below),”, “incubation for 1 day at 36° C.,” for “incubation,”, “were reported as” for “below are”, “respectively. Microorganisms tested were Acinetobacter baumannii (ATCC 17978), Enterococcus faecalis (ATCC 29212), Enterococcus faecium VanA (ATCC 700221), Escherichia coli (ATCC 25922), Escherichia coli efflux defective DEL-tolC (JW5503), Heamophilus influenzae (ATCC 49247), Klebsiella pneumoniae (ATCC 43816), Pseudomonas aeruginosa (ATCC 27853), Pseudomonas aeruginosa MDR (NTUH-974), Staphylococcus aureus (ATCC 29213), Staphylococcus aureus MRSA (ATCC 33591) and Streptococcous pneumoniae (ATCC 46919). H. influenzae was grown in Haemophilus Test Medium and S. pneumoniae was grown in cation adjusted Muller-Hinton Broth II with 5% lysed horse blood. All other microorganisms were grown in cation adjusted Muller-Hinton Broth II.” for “respectively.”
as §1

SMILES	MIC [1] [µg/mL]	effectiveness against the bacteria of Table 2 (Gram-negative bacteria)	MIC [2] [µg/mL]	MIC [3] [µg/mL]	MIC [4] [µg/mL]	MIC [5] [µg/mL]	MIC [6] [µg/mL]	MIC [7] [µg/mL]
CN(C)Cc1ccc(/C=C/c2cc(/C=C/c3ccc(CC(=O)O)cc3)cc(/C=C/c3ccc(CC(=O)O)cc3)c2)cc1 [Compound 16]	>128	ineffective	>128	>128	>128	>128	>128	>128
CN(C)Cc1ccc(/C=C/c2cc(/C=C/c3ccc(CC(N)=O)cc3)cc(/C=C/c3ccc(CC(N)=O)cc3)c2)cc1 [Compound 15]	>128	ineffective	>128	>128	>128	>128	>128	>128
Nc1ccc(CCc2cc(CCc3ccc(N)cc3)cc(CCc3ccc(N)cc3)c2)cc1 [Compound 2 (TSB014)]	>32.0		>32.0	>32.0	>32.0	>32.0	>32.0	>32.0
CN(C)c1ccc(CCc2cc(CCc3ccc(N(C)C)cc3)cc(CCc3ccc(N(C)C)cc3)c2)cc1 [Compound 11 (TSB010)]	>32.0		>32.0	>32.0	>32.0	>32.0	>32.0	>32.0
